Reference: patent US20030229114A1, “Pyrroloquinoline quinone drugs as a neuroprotectant and methods of use thereof” (priority 2002, published 2003)
Values joined by “and” are separate entries in the source; they are usually repeats but may differ in a detail not shown here. Equal values may be shown once. “Also recorded” adds a separate entry of the source.

Legend:
[1] = system: cultured rat forebrain neurons; test: Assay of intracellular ATP in neuronal cultures (firefly luciferase); format: cell-based
Procedure: (§1) Medium was not subsequently changed.
Experiments were carried out exclusively in EBSS. […] PQQ was directly dissolved in EBSS.
The Bioluminescent Somatic Cell Assay kit from Sigma (catalog No. FL-ASC) was used for assay of ATP as previously described (Rosenberg et al., 2000). At selected time points after addition of drug or vehicle, medium was removed, and then replaced with 200 μl of cell lysis agent. After brief agitation, the medium was transferred to microcentrifuge tubes that contained 200 μl of water. The tubes were placed on wet ice until assay. ATP assay mix was used at 25-fold dilution, and 100 μl of the extract was assayed.

[2] = system: cultured rat forebrain neurons; test: Survival assay of neuronal cultures (Alamar Blue reduction, 24 hr); conditions: for Synergism with NMDA in producing neurotoxicity: DEA/NO 100 μM, DPT/NO 300 μM; for Cell (neuronal) survival: ONOO− 100 μM alone, without PQQ; for Effect on neurotoxicity induced by NMDA plus DETA/NO: PBN at 10 mM, TEMPO at 1 mM applied 1 hr before
Procedure: Neuronal cultures were prepared from embryonic day 16 Sprague Dawley rat fetuses using methods similar to those previously described (Dichter, 1978) but modified to produce cultures that contained <1% astrocytes (Rosenberg and Aizenman, 1989; Rosenberg, 1991; Rosenberg et al., 1992; Wang et al., 1998). Cultures were initially plated on poly-L-lysine-coated 24-well plastic plates (Costar, Cambridge, Mass.) using an 80:10:10 (v/v) mixture ofDMEM (Life Technologies 11960-010), Ham's F-12 (Sigma, N-4888), heat-inactivated iron-supplemented calf serum (Hyclone A2151), containing 2 mM glutamine, 25 mM HEPES, 24 U/ml penicillin, and 24 μg/ml streptomycin and maintained in a 5% CO2 (balance air) incubator at 36° C. Cell proliferation was inhibited by exposure to 5 μM cytosine arabinoside at 24 hr in vitro for 72 hr. On the fourth day of culture, the medium was completely removed and replaced with 90% MEM, 10% Nuserum IV (Collaborative Research), 2 mM glutamine, 5 mM HEPES, containing 50 units/ml superoxide dismutase (Boehringer Mannheim, Indianapolis, Ind.), 20 units/ml catalase (Sigma CV-40), total glucose 11 mM, and total sodium bicarbonate 9.3 mM, plus 2% B27 supplement (Life Technologies 17504-036). Medium was not subsequently changed. To prevent evaporation of water, culture dishes were kept in wet dishes containing filter paper that was always kept wet.
In all experiments, 24-well plates were first washed three times in Hank's balanced salt solution (HBSS) containing 0.1% bovine serum albumin (BSA), and then they were placed in Earle's balanced salt solution (EBSS, which is composed of 116 mM NaCl, 5.4 mM KCl, 1.8 mM CaCl2, 0.8 mM MgSO4, 26 mM NaHCO3, 1 mM NaH2PO4 and 5.5 mM D-glucose). Experiments were carried out exclusively in EBSS. […] PQQ was directly dissolved in EBSS.
Survival of cells was determined after 24 hr exposure to the test compounds by assessing the ability of cultures to reduce Alamar Blue (Trek Diagnostic Systems, Inc., Westlake, Ohio) as an index of viability (McGahon et al., 1995). Details of this procedure have been provided elsewhere (Back et al., 1998, 1999). In brief, the test medium was removed after 24 hr, and then replaced with EBSS plus a 1:100 dilution of Alamar Blue. After 2 hr exposure, the medium was diluted 50-fold with water, and the fluorescence intensity was determined in a Hitachi fluorescence spectrophotometer using an excitation wavelength of 530 nm and an emission wavelength of 590 nm. The photomultiplier voltage was set at 700 V. In some experiments, the cell viability determined by Alamar Blue was compared to that determined by the assay of lactate dehydrogenase (LDH) release (Koh and Choi, 1987).

[3] = system: cultured rat forebrain neurons; test: Measurement of intracellular cGMP in neuronal cultures (enzyme-linked immunoassay); format: cell-based
Procedure: as §1
Intracellular cGMP was assayed by enzyme-linked immunoassay (Amersham). Cultures were washed three times, and then medium was replaced by EBSS with or without PQQ or SOD. The non-specific phosphodiesterase inhibitor, 3-isobutyl-1-methylxanthine (IBMX) at 100 μM was present in all conditions. DEA/NO, SIN-1 and peroxynitrite were added for 5 min, and then the medium was replaced with 200 μl of releasing reagent provided in the kit. The plates were agitated for 20 min at room temperature, and 20 μl of acetylation reagent was added. After 5 min, 50 μl samples were taken for assay.

G93A-SOD transgenic mice = conditions: cited from earlier work
BSA = test: Western blot of BSA tyrosine nitration, cell-free (anti-nitrotyrosine antibody); format: biochemical, bovine; conditions: SIN-1 1 mM alone
Procedure: BSA (0.5 mg/ml) in EBSS with or without PQQ was exposed to SIN-1 or peroxynitrite for 1 hr, and then 4× sample buffer (40% glycerol, 20% β-mercaptoethanol, 0.004% bromophenol blue, 6.4% SDS, 25% 1M Tris-HCl, pH 6.8) was added. After the samples were heated for 5 min, 2 μg protein per lane was subjected to SDS-PAGE analysis, followed by transfer to PVDF membrane (NEN Life Science, Boston, Mass.) and reacted with a mouse anti-nitrotyrosine monoclonal antibody (Upstate Biotechnology). Proteins were visualized with horseradish peroxidase-conjugated sheep anti-mouse immunoglobulin G (IgG) followed by detection with enhanced chemiluminescence.

Oligodendrocytes = test: In vitro white matter injury assay: SIN-1 toxicity in oligodendrocytes; format: cell-based; conditions: 2 hr exposure in EBSS; examined at 24 hr
Procedure: Oligodendrocytes were exposed to various concentrations of SIN-1 (0, 0.25, 0.5, 1 and 2 mM) in EBSS for 2 hr with or without PQQ (100 μM), then washed with HBSS containing 0.1% BSA for 2 times. Oligodendrocytes were then returned to the culture medium. The neurotoxicity was examined at 24 hr.
To illustrate the neuroprotective benefits of the invention, PQQ was used to show oligodendrocytes protection from cell toxicity in an in vitro white matter injury assay. Oligodendrocytes were exposed to various concentrations of SIN-1 (0, 0.25, 0.5, 1 and 2 mM) in EBSS for 2 hr with or without PQQ (100 μM), then washed with HBSS containing 0.1% BSA for 2 times. Oligodendrocytes were then returned to the culture medium. The neurotoxicity was examined at 24 hr.

[4] = one hour after nitric oxide donor 1 mM alone
[5] = nitric oxide donor 1 mM alone (FIG. 6B)
[6] = nitric oxide donor 1 mM without MK-801 (FIG. 5A)
[7] = five minutes, agent alone: SIN-1 100 μM, ONOO− 100 μM or DEA/NO 10 μM, IBMX 100 μM

For `CCN(CC)/[N+]([O-])=N/O.CCNCC` [DEA/NO, diethylamine NONOate], the “Intracellular ATP” value [1, 4] was 51.6±5.8 % of control and 50.8±20.9 % of control, the “Neurotoxicity to neurons in culture” value ([2]; 1 mM, in three out of six experiments) was “did not cause any toxicity” and the “Synergism with NMDA in producing neurotoxicity” value [2] was “synergism”. For the same molecule, the Neuronal survival [2, 5] was 48.7±14.6 % of control, the Neuronal survival [2, 6] was 18.2±5.3% and the “Intracellular cGMP content” value [3, 7] was 250±15.5 % of control and 215±32.2 % of control and 318.5±31 % of control.
For `NCCN(CCN)/[N+]([O-])=N/O` [DETA/NO, diethylaminetriamine NONOate], the “Synergistic effect with kainate in producing neurotoxicity” value ([2]; DETA/NO 300 μM with kainate 20 μM) was “synergistic effect”, the Neuronal survival [2, 5] was 25.2±10.6 % of control and the Neuronal survival [2, 6] was 27.9±8.0%.
In the case of `NCCCN(CCCN)/[N+]([O-])=N/O` [DPT/NO, dipropylenetriamine NONOate], the “Intracellular ATP” value [1, 4] is reported as 62.6±4.5 % of control and 64.9±13.7 % of control, the “Synergism with NMDA in producing neurotoxicity” value [2] is reported as “synergism” and the Neuronal survival [2, 5] is reported as 1.9±0.8 % of control. It also gave a Neuronal survival [2, 6] of 6.5±5.3%.
For `[Cl-].[Mn+3].[O-]c1ccccc1C=NCCN=Cc1ccccc1[O-]` [EUK-8], the “Effect on protein tyrosine nitration” value (G93A-SOD transgenic mice) is listed as “reduced protein tyrosine nitration” and the “Effect on survival of transgenic animals” value (G93A-SOD transgenic mice) is listed as “prolonged survival”.
For `COc1cccc(C=NCCN=Cc2cccc(OC)c2[O-])c1[O-].[Cl-].[Mn+3]` [EUK-134], the “Effect on protein tyrosine nitration” value (G93A-SOD transgenic mice) is given as “reduced protein tyrosine nitration” and the “Effect on survival of transgenic animals” value (G93A-SOD transgenic mice) is given as “prolonged survival”.
For `O=C(O)c1ccc(C2=C3C=CC(=N3)C(c3ccc(C(=O)O)cc3)=c3ccc([nH]3)=C(c3ccc(C(=O)O)cc3)c3ccc([n-]3)C(c3ccc(C(=O)O)cc3)c3ccc2[n-]3)cc1.[Cl-].[Mn+3]` (centres unmarked) [MnTBAP, Mn (III) tetrakis (4-benzoic acid) porphyrin chloride], the “Effect on SIN-1 toxicity” value ([2]; MnTBAP 100 μM, SIN-1 1 mM) was “completely protected”, the “Effect on neurotoxicity induced by SIN-1” value ([2]; MnTBAP (TBAP), SIN-1 1 mM) was “completely blocks” and the “Effect on ONOO− (peroxynitrite) toxicity” value ([2]; MnTBAP, ONOO− 100 μM) was “blocked; also recorded: fully protected”.
With `CN[C@H](CC(=O)O)C(=O)O` [NMDA] the “Toxicity to neurons, applied alone” value ([2]; 24 h exposure, NMDA 20 μM or DETA/NO 300 μM) was “does not produce toxicity”.
With `O=NOO` [ONOO^−, peroxynitrite] the “Intracellular ATP” value ([1]; of control values, 1 hr ONOO− 100 μM alone) was 37±9.9%, the “Intracellular ATP” value ([1]; of control values, 1 hr ONOO− 100 μM alone, listed as peroxynitrite) was 40.5±11% and the “ATP level after 5 min exposure” value ([1]; peroxynitrite 100 μM, 5 min) was 50 % of its original levels. For the same molecule, the “Cell (neuronal) survival” value [2] was 52.4±0.4%, the “Cell (neuronal) survival” value ([2]; listed as peroxynitrite) was 49±7.3% and the “Intracellular cGMP content” value [3, 7] was 111±11.2 % of control and 97±14.4 % of control. For the same molecule, the “Intracellular cGMP content” value ([3]; five minutes, agent alone: SIN-1 100 μM, ONOO− 100 μM or DEA/NO 10 μM, IBMX 100 μM, listed as peroxynitrite) was 95.6±4.3 % of control.
In the case of `CC(C)(C)[N+]([O-])=Cc1ccccc1` [PBN, alpha-phenyl-N-tert butyl nitrone], the “Effect on neurotoxicity induced by NMDA plus DETA/NO” value (“Effect … by NMDA plus DETA/NO” for short) ([2]; 24 hr exposure) is reported as “not demonstrably neuroprotective; also recorded: no demonstrable effect” and the “Effect … by NMDA plus DETA/NO” value ([2]; four hour exposure) is reported as “complete neuroprotection; also recorded: block”.
For `N=c1c[n+](N2CCOCC2)[n-]o1` [SIN-1, 3-morpholinosydnonimine], the “Exposure time to maximal ATP depletion” value ([1]; SIN-1 1 mM) was 1 h, the “Intracellular ATP” value ([1]; of control values, 1 hr exposure to SIN-1 1 mM alone) was 43±15.6% and 43.3±18.7% and the “Nitration of BSA” value (BSA) was “strong nitration”. For the same molecule, the EC50 (Oligodendrocytes) was 345 ± 91 µM and the “Intracellular cGMP content” value [3, 7] was 192±10.7 % of control and 207.6±11.5 % of control and 220.5±39.4 % of control.
For `CC1(C)CCCC(C)(C)N1[O]` [TEMPO, 2,2,6,6-tetramethyl-1-piperidinyl-1-oxyl], the “Effect … by NMDA plus DETA/NO” value ([2]; 24 hr exposure) was “not demonstrably neuroprotective; also recorded: no demonstrable effect” and the “Effect … by NMDA plus DETA/NO” value ([2]; four hour exposure) was “complete neuroprotection; also recorded: block”.
With SOD: bovine superoxide dismutase the “Effect on SIN-1 toxicity to neurons” value ([2]; SOD 100 U/ml co-applied with SIN-1 500 μM, no catalase) was “potentiated”, the “Effect on SIN-1 toxicity” value ([2]; SOD 100 U/ml together with catalase (CAT) 100 U/ml, SIN-1 1 mM, 24 hr) was “completely blocked; also recorded: fully prevented” and the Neuronal survival ([2]; co-application of SOD 100 U/ml and SIN-1 500 μM) was 16.8±6.3 % of control and 11.6±1.2 % of control. For the same molecule, the “Intracellular cGMP content” value ([3]; DEA/NO 10 μM in the presence of SOD 100 U/ml) was 310.3±33.4 % of control, the “Intracellular cGMP content” value ([3]; ONOO− 100 μM in the presence of SOD 100 U/ml) was 131±6 % of control and the “Intracellular cGMP content” value ([3]; SIN-1 100 μM in the presence of SOD 100 U/ml) was 327.7±39.5 % of control. The “Effect on cGMP accumulation induced by SIN-1” value ([3]; SOD 100 U/ml, SIN-1 100 μM) was “effect similar to that of PQQ; also recorded: enhanced”.
